10 compounds from ChEMBL document CHEMBL1201862, “PubChem BioAssay data set” (2004) can be followed below.

Calls of active or inactive are those of the source.

Experiment [1] addresses T1, E3 ubiquitin-protein ligase XIAP (Homo sapiens, UniProt P98170). The experiment in a line: Counter Screen using XIAP-Bir3 for Chemical Antagonists of Bir1/2 domains of IAP-family anti-apoptotic proteins. [Related pubchem assays (depositor defined):AID1018, AID1449, AID1514, AID1638, AID1749, AID1750, AID488957, AID488963]. A general note: A counterscreen serves to expose hits that act by an unwanted route or on another target.

Experiment [2] deals with T1, E3 ubiquitin-protein ligase XIAP. Nature of the experiment: XIAP antagonists, biochemical, IAP family, fluorescence polarization (AID 1018). The experiment is classed as functional. (Fluorescence polarisation rises when a labelled molecule tumbles more slowly, as on binding a larger partner.)
The target of experiment [3] is T2, Lysine-specific demethylase 4C (Homo sapiens, UniProt Q9H3R0).
T2 sequence (Q9H3R0 whole entry): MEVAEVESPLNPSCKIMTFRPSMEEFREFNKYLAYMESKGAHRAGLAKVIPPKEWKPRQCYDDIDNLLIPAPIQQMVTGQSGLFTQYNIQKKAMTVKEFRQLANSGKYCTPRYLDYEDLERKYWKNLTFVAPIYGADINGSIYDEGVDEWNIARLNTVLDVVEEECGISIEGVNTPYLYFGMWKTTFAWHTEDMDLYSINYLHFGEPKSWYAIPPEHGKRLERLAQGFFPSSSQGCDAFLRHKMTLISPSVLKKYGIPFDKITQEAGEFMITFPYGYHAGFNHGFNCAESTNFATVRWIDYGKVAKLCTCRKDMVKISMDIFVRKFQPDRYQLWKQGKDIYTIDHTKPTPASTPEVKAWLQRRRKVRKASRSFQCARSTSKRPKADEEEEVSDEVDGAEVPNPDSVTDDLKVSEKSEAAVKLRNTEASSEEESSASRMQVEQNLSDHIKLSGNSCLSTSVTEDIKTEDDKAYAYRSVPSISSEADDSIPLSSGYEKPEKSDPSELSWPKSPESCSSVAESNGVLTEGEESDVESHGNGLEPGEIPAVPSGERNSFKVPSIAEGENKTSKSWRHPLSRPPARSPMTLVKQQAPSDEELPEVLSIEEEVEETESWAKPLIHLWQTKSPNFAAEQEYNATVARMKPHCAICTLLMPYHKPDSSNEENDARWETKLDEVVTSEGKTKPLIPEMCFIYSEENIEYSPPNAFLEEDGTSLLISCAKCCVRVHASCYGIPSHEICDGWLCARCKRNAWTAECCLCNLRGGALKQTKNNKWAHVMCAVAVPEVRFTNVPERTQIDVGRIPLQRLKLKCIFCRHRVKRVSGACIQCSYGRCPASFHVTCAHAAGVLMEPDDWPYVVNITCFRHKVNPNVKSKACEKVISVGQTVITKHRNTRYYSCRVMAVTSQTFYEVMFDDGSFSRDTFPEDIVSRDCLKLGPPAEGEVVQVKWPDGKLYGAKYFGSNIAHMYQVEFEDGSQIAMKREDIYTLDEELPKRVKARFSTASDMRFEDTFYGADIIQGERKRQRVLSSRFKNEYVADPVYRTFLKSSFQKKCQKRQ
Nature of the experiment: GASC-1 (JMJD2C) histone demethylase inhibitors, dose response, biochemical, DELFIA europium, cherry-picked samples (AID 488835). It is filed as functional.

The target of experiment [4] is Alkaline phosphatase, placental type (Homo sapiens, UniProt P05187). Nature of the experiment: PLAP enzyme inhibitors, confirmation, biochemical, luminescence (AID 1512). The experiment is classed as functional.
In experiment [5] the target is T3, Alkaline phosphatase, tissue-nonspecific isozyme (Homo sapiens, UniProt P05186).
T3 sequence (P05186 whole entry): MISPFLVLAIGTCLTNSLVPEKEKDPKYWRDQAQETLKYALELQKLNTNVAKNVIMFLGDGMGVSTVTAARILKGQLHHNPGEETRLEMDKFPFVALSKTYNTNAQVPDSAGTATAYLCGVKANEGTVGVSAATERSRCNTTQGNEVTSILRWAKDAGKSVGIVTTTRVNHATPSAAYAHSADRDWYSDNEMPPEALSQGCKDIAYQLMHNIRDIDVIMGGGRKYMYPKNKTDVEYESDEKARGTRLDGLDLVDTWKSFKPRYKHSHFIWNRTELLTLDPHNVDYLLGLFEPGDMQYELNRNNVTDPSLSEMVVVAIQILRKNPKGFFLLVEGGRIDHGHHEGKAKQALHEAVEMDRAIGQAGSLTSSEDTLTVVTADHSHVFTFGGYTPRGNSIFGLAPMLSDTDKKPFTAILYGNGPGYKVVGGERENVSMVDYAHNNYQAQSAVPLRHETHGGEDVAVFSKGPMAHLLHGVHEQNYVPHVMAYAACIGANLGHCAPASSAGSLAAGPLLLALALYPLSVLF
The experiment in a line: human TNAP enzyme inhibitors, SAR follow-up, biochemical, luminescent, dose response (AID 1056).

For experiment [6], the target named is T4, Tyrosine-protein phosphatase non-receptor type 7 (Homo sapiens, UniProt P35236).
T4 sequence (P35236 whole entry): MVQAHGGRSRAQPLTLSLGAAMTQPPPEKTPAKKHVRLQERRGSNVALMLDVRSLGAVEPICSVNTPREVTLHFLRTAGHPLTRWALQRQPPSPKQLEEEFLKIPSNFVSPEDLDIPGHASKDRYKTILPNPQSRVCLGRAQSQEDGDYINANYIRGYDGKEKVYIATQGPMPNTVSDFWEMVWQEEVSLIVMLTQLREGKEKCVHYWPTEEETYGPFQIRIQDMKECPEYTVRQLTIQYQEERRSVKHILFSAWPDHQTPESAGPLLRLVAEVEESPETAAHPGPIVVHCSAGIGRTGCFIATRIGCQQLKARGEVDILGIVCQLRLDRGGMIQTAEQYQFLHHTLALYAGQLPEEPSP
It is filed as functional.

Experiment [7] has as its target T5, Tyrosine-protein phosphatase non-receptor type 22 (Homo sapiens, UniProt Q9Y2R2).
T5 sequence (Q9Y2R2 whole entry): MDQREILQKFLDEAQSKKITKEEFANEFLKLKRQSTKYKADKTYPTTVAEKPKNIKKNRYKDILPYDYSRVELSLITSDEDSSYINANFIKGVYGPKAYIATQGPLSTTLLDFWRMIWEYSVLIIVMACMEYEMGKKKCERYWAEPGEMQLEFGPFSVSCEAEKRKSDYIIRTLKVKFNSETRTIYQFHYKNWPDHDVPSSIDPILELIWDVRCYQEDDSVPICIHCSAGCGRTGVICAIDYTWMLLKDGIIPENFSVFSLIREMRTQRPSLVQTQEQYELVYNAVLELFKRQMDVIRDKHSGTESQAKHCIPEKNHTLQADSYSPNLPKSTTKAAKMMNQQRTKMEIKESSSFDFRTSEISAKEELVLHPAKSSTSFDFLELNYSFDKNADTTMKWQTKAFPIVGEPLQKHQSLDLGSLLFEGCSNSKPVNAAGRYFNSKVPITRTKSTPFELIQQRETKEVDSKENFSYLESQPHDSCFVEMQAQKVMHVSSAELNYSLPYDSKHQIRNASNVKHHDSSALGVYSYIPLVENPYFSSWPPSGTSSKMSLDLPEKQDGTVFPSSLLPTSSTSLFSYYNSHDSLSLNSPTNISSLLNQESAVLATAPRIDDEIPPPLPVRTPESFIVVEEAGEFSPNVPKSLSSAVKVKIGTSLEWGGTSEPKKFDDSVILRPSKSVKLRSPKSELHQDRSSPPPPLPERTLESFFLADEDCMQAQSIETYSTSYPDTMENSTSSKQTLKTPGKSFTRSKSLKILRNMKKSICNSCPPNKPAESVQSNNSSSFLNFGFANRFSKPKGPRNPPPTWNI
It is filed as functional.

Experiment [8] deals with T5, Tyrosine-protein phosphatase non-receptor type 22. It is filed as functional. The source holds these as a separate data set.
The nature of experiment [9]: cytotoxicity in HEK-293T cells, dose response, cytotoxicity control for TCR NF-kB inhibitor project, luminescence, T-cell screen hits (AID 489026).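 Also: cells exposed to compound about 14 hours before the viability readout.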 It is filed as functional, cell-based.
Experiment [10] is described as follows: Intein inhibitors as potential Tuberculosis drugs, a cytotoxicity screen. [Related pubchem assays (depositor defined):AID2221, AID2223, AID434968, AID435010, AID449749, AID449750, AID489010]. It is filed as functional.
Experiment [11] has as its target T6, Replicative DNA helicase DnaB (Mycobacterium tuberculosis, UniProt P9WMR3).
T6 sequence (P9WMR3 whole entry): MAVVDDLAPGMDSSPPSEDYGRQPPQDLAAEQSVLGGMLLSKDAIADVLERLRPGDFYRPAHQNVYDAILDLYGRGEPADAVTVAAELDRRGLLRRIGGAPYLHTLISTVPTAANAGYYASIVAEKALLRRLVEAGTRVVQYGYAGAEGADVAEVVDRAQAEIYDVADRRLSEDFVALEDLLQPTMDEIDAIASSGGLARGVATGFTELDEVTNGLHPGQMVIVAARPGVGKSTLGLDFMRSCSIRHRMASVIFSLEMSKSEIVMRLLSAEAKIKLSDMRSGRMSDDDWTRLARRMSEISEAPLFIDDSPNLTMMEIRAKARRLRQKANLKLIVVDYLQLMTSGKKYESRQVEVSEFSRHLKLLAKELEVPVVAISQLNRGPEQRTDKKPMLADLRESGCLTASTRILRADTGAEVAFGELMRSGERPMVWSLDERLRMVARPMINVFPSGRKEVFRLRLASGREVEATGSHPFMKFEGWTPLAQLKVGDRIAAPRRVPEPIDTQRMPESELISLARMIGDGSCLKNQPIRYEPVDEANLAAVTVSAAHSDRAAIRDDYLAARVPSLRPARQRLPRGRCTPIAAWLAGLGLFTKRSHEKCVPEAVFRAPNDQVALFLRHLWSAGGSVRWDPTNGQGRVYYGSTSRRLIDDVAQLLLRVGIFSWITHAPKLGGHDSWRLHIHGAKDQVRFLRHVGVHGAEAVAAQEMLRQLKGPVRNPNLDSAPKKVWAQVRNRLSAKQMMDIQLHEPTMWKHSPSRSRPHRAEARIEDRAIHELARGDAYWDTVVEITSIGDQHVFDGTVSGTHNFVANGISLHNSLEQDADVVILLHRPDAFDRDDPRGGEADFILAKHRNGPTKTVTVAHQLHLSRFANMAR
The experiment in a line: DnaB intein splicing inhibitors, dose response, biochemical, cell-free fluorescence (AID 449749). The experiment is classed as functional.

The target of a further experiment is T7, Protein RecA (Mycobacterium tuberculosis, UniProt P9WHJ3).
T7 sequence (P9WHJ3 whole entry): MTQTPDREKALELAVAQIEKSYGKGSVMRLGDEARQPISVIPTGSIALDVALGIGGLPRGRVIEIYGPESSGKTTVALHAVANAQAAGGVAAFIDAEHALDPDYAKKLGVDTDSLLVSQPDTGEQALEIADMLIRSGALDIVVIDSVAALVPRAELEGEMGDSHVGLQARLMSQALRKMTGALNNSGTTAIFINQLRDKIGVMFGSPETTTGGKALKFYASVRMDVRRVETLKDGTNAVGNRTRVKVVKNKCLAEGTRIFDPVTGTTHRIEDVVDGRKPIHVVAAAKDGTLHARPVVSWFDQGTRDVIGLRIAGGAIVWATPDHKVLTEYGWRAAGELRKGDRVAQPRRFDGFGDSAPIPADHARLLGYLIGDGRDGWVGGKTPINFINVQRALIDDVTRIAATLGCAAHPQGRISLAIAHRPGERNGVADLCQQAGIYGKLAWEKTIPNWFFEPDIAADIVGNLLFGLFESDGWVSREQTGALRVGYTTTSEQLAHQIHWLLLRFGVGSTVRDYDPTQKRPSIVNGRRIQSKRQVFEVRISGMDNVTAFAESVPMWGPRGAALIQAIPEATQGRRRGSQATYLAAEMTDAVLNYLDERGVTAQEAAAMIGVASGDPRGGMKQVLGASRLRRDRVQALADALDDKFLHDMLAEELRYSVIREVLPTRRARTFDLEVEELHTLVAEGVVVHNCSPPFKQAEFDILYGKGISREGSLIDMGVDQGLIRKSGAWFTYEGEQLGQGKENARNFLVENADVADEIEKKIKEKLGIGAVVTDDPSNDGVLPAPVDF
The experiment in a line: Fluorescence Cell-Free Homogeneous Dose Retest to Identify Inhibitors of RecA-Intein Splicing Activity. [Related pubchem assays (depositor defined):AID2097, AID2223, AID489010, AID492950]. The experiment is classed as functional.
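For CC50 in this document: cells exposed to compound for 72 hours before luminescence readout.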

Chain of Alkaline phosphatase, placental type (P05187 whole entry): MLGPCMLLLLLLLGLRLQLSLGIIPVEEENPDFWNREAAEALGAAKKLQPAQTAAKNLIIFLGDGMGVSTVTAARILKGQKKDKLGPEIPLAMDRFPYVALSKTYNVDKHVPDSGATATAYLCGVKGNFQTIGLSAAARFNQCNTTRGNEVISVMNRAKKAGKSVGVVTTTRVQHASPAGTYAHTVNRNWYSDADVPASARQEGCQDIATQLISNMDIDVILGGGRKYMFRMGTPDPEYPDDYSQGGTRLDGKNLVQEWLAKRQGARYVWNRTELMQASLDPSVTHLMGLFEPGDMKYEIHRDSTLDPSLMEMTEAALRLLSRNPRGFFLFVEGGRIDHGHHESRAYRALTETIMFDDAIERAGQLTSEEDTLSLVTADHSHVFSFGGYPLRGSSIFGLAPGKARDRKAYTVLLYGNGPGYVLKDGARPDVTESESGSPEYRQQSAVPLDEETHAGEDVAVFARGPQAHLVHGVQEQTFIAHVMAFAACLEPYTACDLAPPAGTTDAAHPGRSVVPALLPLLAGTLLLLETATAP
T1 sequence (P98170 whole entry): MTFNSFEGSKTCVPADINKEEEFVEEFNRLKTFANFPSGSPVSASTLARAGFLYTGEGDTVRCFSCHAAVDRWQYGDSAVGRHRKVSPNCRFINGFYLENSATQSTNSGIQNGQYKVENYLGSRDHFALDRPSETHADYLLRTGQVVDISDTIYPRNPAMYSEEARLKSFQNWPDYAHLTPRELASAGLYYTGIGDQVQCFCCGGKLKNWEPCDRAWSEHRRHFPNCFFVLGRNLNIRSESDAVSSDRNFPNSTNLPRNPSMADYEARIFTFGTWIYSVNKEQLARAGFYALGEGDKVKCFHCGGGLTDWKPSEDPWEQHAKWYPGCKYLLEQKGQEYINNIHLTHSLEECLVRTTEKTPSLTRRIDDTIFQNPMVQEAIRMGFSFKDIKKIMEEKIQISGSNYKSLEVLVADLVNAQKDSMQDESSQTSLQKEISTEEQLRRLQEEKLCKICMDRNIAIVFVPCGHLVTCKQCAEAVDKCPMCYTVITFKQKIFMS

One may read the IC50 as the midpoint of a concentration-inhibition curve. For the compound `COc1ccccc1CNC(=O)COC(=O)Cc1ccsc1`, the IC50 was > 100 µM (inactive) in experiment [1] and > 100 µM (not active) in experiment [2].
By AC50 is commonly meant the concentration giving half of the maximal activity seen. With `COc1ccc(/C=C2/C(=O)NC(=O)N(C3CCCCC3)C2=O)cc1CSc1ccccn1`, the AC50 in experiment [3] is 10 µM (active).
In the case of `C=CCn1c(SCC(=O)c2ccc(O)c(O)c2)nnc1-c1ccc(OC)cc1`, the IC50 in experiment [4] was 13.6 µM (active); in [5] it was > 100 µM (inactive).
Taken in the same sequence, the figures for `Cc1ccc(-c2nnc(SCC(=O)c3ccc(O)c(O)c3)n2Cc2ccco2)cc1` were 5.32 µM (active) and 19.2 µM (active).
With `O=C(NCc1ccco1)c1ccc2ccccc2n1`, the IC50 in experiment [6], in experiment [7] and in [8] was > 79.4 µM (inactive) throughout.
As usually defined, the CC50 is the concentration at which the toxic effect on the cells reaches its halfway point. For orientation: EC50 means the concentration that produces a half-maximal response. With `COc1cc(NCCCCCCCN)c2ncccc2c1`, the IC50 in experiment [9] was 46.9 µM (inactive). Moreover, in experiment [10], the CC50 is > 40 µM (active). The AC50 in experiment [11] is 2.12 µM (active). In addition, the EC50 at Protein RecA was 0.401 µM (active).
For the compound `Cc1ccc(S(=O)(=O)c2nc(-c3ccccc3)oc2NCCN2CCOCC2)cc1`, the IC50 is > 79.4 µM (inactive) in experiment [6], 75.3 µM (active) in experiment [7] and > 79.4 µM (inactive) in [8].
On to `CN(CC(=O)O)c1ccc(C(F)(F)F)cc1[N+](=O)[O-]`, for which the IC50 in [1] is > 100 µM (inactive); in experiment [2] it was > 100 µM (not active).
`Cc1cc(C(=O)NCc2ccc(O)c(O)c2)oc1C`: the results for the IC50 in experiment [4] and in experiment [5] were 52.7 µM (active) and > 100 µM (inactive), respectively.
In the case of `Cc1cc(NC(=O)c2cc([N+](=O)[O-])cc([N+](=O)[O-])c2)n(-c2ccccc2)n1`, the IC50 is > 100 µM (inactive) in [1] and > 100 µM (not active) in experiment [2].
